Measurements: patent publication US10092028B2, “Compositions comprising cinnamaldehyde and zinc and methods of using such compositions” (NESTEC S.A., priority 2014, dated 2018)

Columns and labels:
[1] = in vivo; cited from earlier work
[2] = nose temperature after ingestion in human subjects; format: in vivo; details: fifteen minutes following ingestion, FIG. 7
Method: (§1) The nose temperature of the subjects was analyzed over the fifteen minutes following ingestion of the various compounds. […] The increased sympathetic activity identified by measuring the facial temperature (increased blood flow on the chin) might explain the increased energy expenditure measured by indirect calorimetry.

[3] = comparative taste testing in human subjects; format: in vivo; details: 4.8 ppm capsaicin or 350 ppm cinnamaldehyde, FIG. 9
Method: Human subjects were administered a composition comprising 4.8 ppm capsaicin or 350 ppm cinnamaldehyde. […] 87.9% of the participants judged capsaicin intense to very intense, compared to only 20.5% for cinnamaldehyde. To achieve a similar effect on fat oxidation of capsaicin and cinnamaldehyde, the dose of capsaicin is about 1.5 times less than the maximum that can be used as a flavor (7 ppm according to Fenaroli's Handbook; Burdock, 2010), and the dose of cinnamaldehyde is about 17.5 times less than the maximum that can be used as a flavor (6191.0 ppm according to Fenaroli's Handbook; Burdock, 2010).

[4] = energy expenditure after ingestion in human subjects; format: in vivo
Method: Human subjects were administered placebo, a cooling flavor, capsaicin, or cinnamaldehyde. The energy expenditure was measured over the eighty minutes following ingestion. […] The increased sympathetic activity identified by measuring the facial temperature (increased blood flow on the chin) might explain the increased energy expenditure measured by indirect calorimetry.

TRPV1 = TRPV1 (Homo sapiens, UniProt Q8NER1); details: cited from earlier work
TRPA1 = TRPA1 (Homo sapiens, UniProt O75762); details: read-out: EC50 for activation of TRPA1; cited from earlier work
[5] = postprandial fat oxidation after ingestion in human subjects; format: in vivo
Method: The postprandial fat oxidation was measured over the 90 minutes following ingestion of the various compounds.

[6] = insulin sensitivity in mice with chronic ingestion, high fat diet; format: in vivo; details: mice chronically fed high fat diet containing 0.2 wt % cinnamaldehyde, FIG. 11
Source text: The composition can thereby reduce glycemia.

[7] = biological target: T1, hTRPA1 expressed in CHO cells (Homo sapiens, UniProt O75762); assay: in vitro activity of hTRPA1 expressed in CHO cells, intracellular calcium with a fluorescent dye; format: cell-based; details: cinnamaldehyde at 50 mM (C+), according to a dose-response curve
T1 construct: expressed in transfected cells; host or cells: CHO cells

[8] = chin temperature after ingestion in human subjects (sympathetic activity); format: in vivo
Method: as §1, with “chin” for “nose”, “measured” for “analyzed”, “eighty” for “fifteen”

[9] = at a flavoring level judged significantly less intense than capsaicin

Chain of TRPA1 (O75762 whole entry): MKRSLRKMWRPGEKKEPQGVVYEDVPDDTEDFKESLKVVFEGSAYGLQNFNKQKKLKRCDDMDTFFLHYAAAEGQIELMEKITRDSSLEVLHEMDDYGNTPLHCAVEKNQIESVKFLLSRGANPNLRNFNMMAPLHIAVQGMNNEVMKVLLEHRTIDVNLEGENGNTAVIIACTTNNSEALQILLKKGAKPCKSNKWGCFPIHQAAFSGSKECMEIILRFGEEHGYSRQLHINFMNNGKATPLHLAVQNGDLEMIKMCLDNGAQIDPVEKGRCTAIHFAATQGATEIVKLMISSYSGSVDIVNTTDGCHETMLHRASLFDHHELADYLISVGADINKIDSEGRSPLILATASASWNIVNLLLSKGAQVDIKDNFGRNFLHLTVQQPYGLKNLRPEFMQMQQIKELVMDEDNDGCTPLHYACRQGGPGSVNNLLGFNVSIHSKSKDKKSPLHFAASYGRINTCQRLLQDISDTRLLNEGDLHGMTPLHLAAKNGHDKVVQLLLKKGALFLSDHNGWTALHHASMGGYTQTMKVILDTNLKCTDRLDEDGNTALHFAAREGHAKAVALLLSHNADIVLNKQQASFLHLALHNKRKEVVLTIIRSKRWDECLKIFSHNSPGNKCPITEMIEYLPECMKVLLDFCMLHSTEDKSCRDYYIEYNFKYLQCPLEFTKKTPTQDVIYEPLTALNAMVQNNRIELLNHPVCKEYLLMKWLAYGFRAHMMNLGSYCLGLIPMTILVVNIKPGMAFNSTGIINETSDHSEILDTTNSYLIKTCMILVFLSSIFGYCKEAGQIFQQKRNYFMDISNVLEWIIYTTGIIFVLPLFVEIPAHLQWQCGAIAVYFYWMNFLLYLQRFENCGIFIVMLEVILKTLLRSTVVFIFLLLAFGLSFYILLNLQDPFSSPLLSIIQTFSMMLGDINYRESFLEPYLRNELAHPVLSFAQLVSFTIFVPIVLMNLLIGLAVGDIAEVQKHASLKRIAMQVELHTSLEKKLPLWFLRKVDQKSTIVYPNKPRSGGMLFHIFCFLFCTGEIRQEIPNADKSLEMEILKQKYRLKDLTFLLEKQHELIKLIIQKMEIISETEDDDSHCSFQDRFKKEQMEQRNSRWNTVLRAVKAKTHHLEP
T1 sequence (O75762 whole entry): as above
Chain of TRPV1 (Q8NER1 whole entry, species assumed): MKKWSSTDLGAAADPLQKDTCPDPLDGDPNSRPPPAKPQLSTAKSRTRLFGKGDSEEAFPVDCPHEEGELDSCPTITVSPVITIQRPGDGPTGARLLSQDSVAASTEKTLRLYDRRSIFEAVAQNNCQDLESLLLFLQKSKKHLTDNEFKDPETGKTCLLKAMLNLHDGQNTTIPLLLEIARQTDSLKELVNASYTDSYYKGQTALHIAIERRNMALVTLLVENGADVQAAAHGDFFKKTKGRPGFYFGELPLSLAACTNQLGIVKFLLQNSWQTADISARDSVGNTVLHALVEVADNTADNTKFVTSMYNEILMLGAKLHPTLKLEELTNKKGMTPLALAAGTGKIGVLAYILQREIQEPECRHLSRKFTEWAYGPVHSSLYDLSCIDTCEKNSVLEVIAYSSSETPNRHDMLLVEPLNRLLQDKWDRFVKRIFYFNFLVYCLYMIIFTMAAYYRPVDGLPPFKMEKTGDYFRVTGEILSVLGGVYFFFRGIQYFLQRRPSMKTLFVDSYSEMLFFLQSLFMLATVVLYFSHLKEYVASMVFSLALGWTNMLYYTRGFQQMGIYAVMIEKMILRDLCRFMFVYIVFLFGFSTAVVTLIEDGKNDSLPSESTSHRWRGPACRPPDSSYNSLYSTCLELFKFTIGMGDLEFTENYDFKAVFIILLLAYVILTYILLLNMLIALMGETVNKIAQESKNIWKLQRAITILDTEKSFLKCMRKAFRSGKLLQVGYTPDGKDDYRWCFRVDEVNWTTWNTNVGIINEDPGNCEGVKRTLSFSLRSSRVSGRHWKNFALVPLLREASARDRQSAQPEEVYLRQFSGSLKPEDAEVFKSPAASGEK

Q: Which “efficient dose for increasing energy expenditure and fat oxidation” value [1] does the source give for COc1cc(CNC(=O)CCCC/C=C/C(C)C)ccc1O [capsaicin] here?
A: The value was ≥ 20 mg.

Q: And the nose temperature [2]?
A: Its nose temperature is “increase nose temperatures”.

Q: And the “participants who judged the taste intense to very intense” value [3]?
A: Its value is 87.9%.

Q: Which results are given for O=CC=Cc1ccccc1 [cinnamaldehyde]?
A: impact on energy expenditure compared to capsaicin [4, 9]: significantly higher impact; energy expenditure compared to placebo ([4]; eighty minutes following ingestion, time course and AUC, FIGS. 3 and 4): increased; activation of TRPV1 (TRPV1): but not TRPV1 or TRPM8; EC50 (TRPA1): ~10 µM; postprandial fat oxidation compared to placebo ([5]; 90 minutes following ingestion, time course and AUC, FIGS. 5 and 6): maintained at higher levels; effect on fat oxidation compared to capsaicin [5, 9]: equivalent effect; nose temperature [2]: increase nose temperatures; insulin sensitivity relative to same high fat diet without cinnamaldehyde [6]: improved insulin sensitivity; activity of hTRPA1, positive control efficacy [7]: maximum efficacy; impact on sympathetic nervous system activity compared to capsaicin [8, 9]: significantly higher impact; chin temperature relative to baseline ([8]; eighty minutes following ingestion, FIG. 8): increases chin temperature for a prolonged time
